From patent US8343475B2, “Small cationic antimicrobial peptides” (priority 2006, dated 2013)
Values after ≈ are worked out from the molar mass of the structure shown. Read-outs that look alike come from different tables or passages of the source. Residues, ends and D or L forms follow the SMILES beside them.

Experiments:
Format in all cases: cell-based
[1] = test system: lab isolate of Candida albicans; conditions: lab isolate of
Description: (§1) Minimal inhibitory concentration (MIC) determination. The MIC of the peptides were measured using a modified broth microdilution method in Mueller Hinton (MH) medium (Wu M, Hancock R E W. 1999. Interaction of the cyclic antimicrobial cationic peptide bactenecin with the outer and cytoplasmic membrane. J Biol Chem 274, 29-35). Briefly, the peptides were dissolved and stored in glass vials. The assay was performed in sterile 96-well polypropylene microtitre plates were used. Serial dilutions of the peptides to be assayed were performed in 0.01% acetic acid (Fisher) containing 0.2% bovine serum albumin (Boehringer Mannheim GmbH) at 10× the desired final concentration. Ten microlitres of the 10× peptides were added to each well of a 96-well polypropylene plate containing 90 μl of MH media per well. Bacteria were added to the plate from an overnight culture at 2-7×10^5 colony forming units/ml and incubated over night at 37° C. The MIC was taken as the concentration at which no growth was observed.
(§2) Strains. For the killing assay a mini-Tn5-lux mutant in Pseudomonas aeruginosa H103 was used. The strain is called H1001 and contains a fliC::luxCDABE transcriptional fusion resulting in constitutive expression of luciferase. The bacterial strains used for the antimicrobial activity assays included Escherichia coli UB1005 (F-, nalA37, metB1), a wild-type Salmonella enterica ssp. typhimurium (S. typhimurium), wild-type Pseudomonas aeruginosa PAO1 strain H103, Enterococcus faecalis ATCC29212, Staphylococcus aureus ATCC25923, and a clinical isolate of Staphylococcus epidermidis obtained from Dr. D. Speert (Department of Medicine, University of British Columbia). Antifungal activity was tested using a lab isolate of Candida albicans obtained from Dr. B. Dill (Department of Microbiology and Immunology, University of British Columbia).

[2] = test system: Enterococcus faecalis ATCC29212; conditions: ATCC29212
Description: as §1, §2

[3] = test system: clinical isolate of Staphylococcus epidermidis; conditions: clinical isolate of
Description: as §1, §2

Escherichia coli UB1005 = test system: Escherichia coli UB1005
Description: as §1, §2

[4] = test system: Staphylococcus aureus ATCC25923; conditions: ATCC25923
Description: as §1, §2

[5] = test system: wild-type Salmonella enterica ssp. typhimurium
Description: as §1, §2

[6] = test system: Pseudomonas aeruginosa PAO1 strain H103; conditions: PAO1
Description: The biological activity of the peptides can be determined by standard methods known to those of skill in the art, such as “minimal inhibitory concentration (MIC)” assay described in the present examples, whereby the lowest concentration at which no change in OD is observed for a given period of time is recorded as MIC.
as §1, §2

Compound: CC[C@H](C)[C@H](NC(=O)[C@H](CCCNC(=N)N)NC(=O)[C@H](CC(C)C)NC(=O)[C@H](CCC(N)=O)NC(=O)[C@@H](N)C(C)C)C(=O)N[C@@H](CCCNC(=N)N)C(=O)N[C@H](C(=O)N[C@@H](C)C(=O)N[C@H](C(=O)N[C@H](C(=O)N[C@@H](CCCNC(=N)N)C(=O)N[C@@H](C)C(N)=O)[C@@H](C)CC)C(C)C)C(C)C [HH2, VQLRIRVAVIRA] (H-VQLRIRVAVIRA-NH2)
- MIC C. albicans [1]: 25 µg/mL (≈ 17.9 µM)
- MIC E. faecalis [2]: 50 µg/mL (≈ 35.9 µM)
- MIC S. epi. [3]: 12 µg/mL (≈ 8.62 µM)
- MIC E. coli (Escherichia coli UB1005; UB1005): 6 µg/mL (≈ 4.31 µM)
- MIC S. aureus [4]: 50 µg/mL (≈ 35.9 µM)
- MIC S. typhi [5]: 12 µg/mL (≈ 8.62 µM)
- MIC P. aerug [6]: >50 µg/mL

Compound: CC[C@H](C)[C@H](NC(=O)[C@@H](N)CCCCN)C(=O)N[C@@H](Cc1c[nH]c2ccccc12)C(=O)N[C@H](C(=O)N[C@@H](CCCNC(=N)N)C(=O)N[C@@H](Cc1c[nH]c2ccccc12)C(=O)N[C@@H](CCCCN)C(N)=O)C(C)C [HH17, KIWVRWK-NH2] (H-KIWVRWK-NH2)
- MIC C. albicans [1]: >50 µg/mL
- MIC E. faecalis [2]: >50 µg/mL
- MIC S. epi. [3]: >50 µg/mL
- MIC E. coli (Escherichia coli UB1005; UB1005): 50 µg/mL (≈ 49.3 µM)
- MIC S. aureus [4]: >50 µg/mL
- MIC S. typhi [5]: >50 µg/mL
- MIC P. aerug [6]: >50 µg/mL

Compound: CC[C@H](C)[C@H](NC(=O)[C@H](CCCNC(=N)N)NC(=O)[C@H](CC(C)C)NC(=O)[C@H](CCC(N)=O)NC(=O)[C@@H](N)C(C)C)C(=O)N[C@@H](CCCNC(=N)N)C(=O)N[C@H](C(=O)N[C@@H](CCCNC(=N)N)C(=O)N[C@H](C(=O)N[C@H](C(=O)N[C@@H](CCCNC(=N)N)C(=O)N[C@@H](CCCCN)C(N)=O)[C@@H](C)CC)C(C)C)C(C)C [HH9, VQLRIRVRVIRK] (H-VQLRIRVRVIRK-NH2; N-terminus assumed)
- MIC C. albicans [1]: 6 µg/mL (≈ 3.91 µM)
- MIC E. faecalis [2]: 12 µg/mL (≈ 7.82 µM)
- MIC S. epi. [3]: 1.6 µg/mL (≈ 1.04 µM)
- MIC E. coli (Escherichia coli UB1005; UB1005): 3 µg/mL (≈ 1.95 µM)
- MIC S. aureus [4]: 12 µg/mL (≈ 7.82 µM)
- MIC S. typhi [5]: 6 µg/mL (≈ 3.91 µM)
- MIC P. aerug [6]: 6 µg/mL (≈ 3.91 µM)

Compound: CC[C@H](C)[C@H](N)C(=O)N[C@@H](CC(C)C)C(=O)N1CCC[C@H]1C(=O)N[C@@H](Cc1c[nH]c2ccccc12)C(=O)N[C@@H](CCCCN)C(=O)N[C@@H](Cc1c[nH]c2ccccc12)C(=O)N[C@@H](CCCNC(=N)N)C(=O)N[C@@H](Cc1c[nH]c2ccccc12)C(=O)N[C@@H](Cc1c[nH]c2ccccc12)C(=O)N[C@@H](CCCCN)C(=O)N[C@@H](Cc1c[nH]c2ccccc12)C(=O)N[C@@H](CCCNC(=N)N)C(=O)N[C@@H](CCCNC(=N)N)C(N)=O [HH971, ILPWKWRWWKWRR] (H-ILPWKWRWWKWRR-NH2; N-terminus assumed)
- MIC C. albicans [1]: 8 µg/mL (≈ 4.01 µM)
- MIC E. faecalis [2]: 31 µg/mL (≈ 15.5 µM)
- MIC S. epi. [3]: 2 µg/mL (≈ 1 µM)
- MIC E. coli (Escherichia coli UB1005; indolicidin substitution variants (Table 4)): 8 µg/mL (≈ 4.01 µM)
- MIC S. aureus [4]: 8 µg/mL (≈ 4.01 µM)
- MIC S. typhi [5]: 16 µg/mL (≈ 8.01 µM)
- MIC P. aerug [6]: 16 µg/mL (≈ 8.01 µM)

Compound: CC[C@H](C)[C@H](NC(=O)[C@H](CCCNC(=N)N)NC(=O)[C@H](Cc1c[nH]c2ccccc12)NC(=O)[C@H](CCCNC(=N)N)NC(=O)[C@@H](N)C(C)C)C(=O)N[C@@H](CCCNC(=N)N)C(=O)N[C@H](C(=O)N[C@@H](C)C(=O)N[C@H](C(=O)N[C@H](C(=O)N[C@@H](CCCNC(=N)N)C(=O)N[C@@H](C)C(N)=O)[C@@H](C)CC)C(C)C)C(C)C [HH4, VRWRIRVAVIRA] (H-VRWRIRVAVIRA-NH2)
- MIC C. albicans [1]: 12 µg/mL (≈ 8.03 µM)
- MIC E. faecalis [2]: 12 µg/mL (≈ 8.03 µM)
- MIC S. epi. [3]: 1.6 µg/mL (≈ 1.07 µM)
- MIC E. coli (Escherichia coli UB1005; UB1005): 1.6 µg/mL (≈ 1.07 µM)
- MIC S. aureus [4]: 12 µg/mL (≈ 8.03 µM)
- MIC S. typhi [5]: 6 µg/mL (≈ 4.02 µM)
- MIC P. aerug [6]: 6 µg/mL (≈ 4.02 µM)

Compound: CC[C@H](C)[C@H](NC(=O)[C@H](CCCNC(=N)N)NC(=O)[C@H](Cc1c[nH]c2ccccc12)NC(=O)[C@H](CCC(N)=O)NC(=O)[C@@H](N)Cc1c[nH]cn1)C(=O)N[C@@H](CCCNC(=N)N)C(=O)N[C@H](C(=O)N[C@@H](C)C(=O)N[C@H](C(=O)N[C@@H](CCCNC(=N)N)C(=O)N[C@@H](CCCNC(=N)N)C(=O)N[C@@H](Cc1c[nH]cn1)C(N)=O)C(C)C)C(C)C [HH14, HQWRIRVAVRRH] (H-HQWRIRVAVRRH-NH2)
- MIC C. albicans [1]: 25 µg/mL (≈ 15.5 µM)
- MIC E. faecalis [2]: >50 µg/mL
- MIC S. epi. [3]: 12 µg/mL (≈ 7.44 µM)
- MIC E. coli (Escherichia coli UB1005; UB1005): 6 µg/mL (≈ 3.72 µM)
- MIC S. aureus [4]: 25 µg/mL (≈ 15.5 µM)
- MIC S. typhi [5]: 25 µg/mL (≈ 15.5 µM)
- MIC P. aerug [6]: 50 µg/mL (≈ 31 µM)

Compound: CC[C@H](C)[C@H](NC(=O)[C@H](CCCNC(=N)N)NC(=O)[C@H](CC(C)C)NC(=O)[C@H](CCCNC(=N)N)NC(=O)[C@@H](N)C(C)C)C(=O)N[C@@H](CCCNC(=N)N)C(=O)N[C@H](C(=O)N[C@@H](C)C(=O)N[C@H](C(=O)N[C@@H](CCCNC(=N)N)C(=O)N[C@@H](CCCNC(=N)N)C(=O)N[C@@H](C)C(N)=O)C(C)C)C(C)C [HH7, VRLRIRVAVRRA] (H-VRLRIRVAVRRA-NH2)
- MIC C. albicans [1]: 6 µg/mL (≈ 4.1 µM)
- MIC E. faecalis [2]: 25 µg/mL (≈ 17.1 µM)
- MIC S. epi. [3]: 1.6 µg/mL (≈ 1.09 µM)
- MIC E. coli (Escherichia coli UB1005; UB1005): 6 µg/mL (≈ 4.1 µM)
- MIC S. aureus [4]: 12 µg/mL (≈ 8.2 µM)
- MIC S. typhi [5]: 6 µg/mL (≈ 4.1 µM)
- MIC P. aerug [6]: 12 µg/mL (≈ 8.2 µM)

Compound: CC[C@H](C)[C@H](NC(=O)[C@H](CCCNC(=N)N)NC(=O)[C@H](CC(C)C)NC(=O)[C@H](CCCNC(=N)N)NC(=O)[C@@H](N)C(C)C)C(=O)N[C@@H](CCCNC(=N)N)C(=O)N[C@H](C(=O)N[C@@H](Cc1c[nH]c2ccccc12)C(=O)N[C@H](C(=O)N[C@H](C(=O)N[C@@H](CCCNC(=N)N)C(=O)N[C@@H](C)C(N)=O)[C@@H](C)CC)C(C)C)C(C)C [HH6, VRLRIRVWVIRA] (H-VRLRIRVWVIRA-NH2)
- MIC C. albicans [1]: 25 µg/mL (≈ 16.3 µM)
- MIC E. faecalis [2]: 6 µg/mL (≈ 3.91 µM)
- MIC S. epi. [3]: 1.6 µg/mL (≈ 1.04 µM)
- MIC E. coli (Escherichia coli UB1005; UB1005): 3 µg/mL (≈ 1.95 µM)
- MIC S. aureus [4]: 6 µg/mL (≈ 3.91 µM)
- MIC S. typhi [5]: 12 µg/mL (≈ 7.81 µM)
- MIC P. aerug [6]: 12 µg/mL (≈ 7.81 µM)

Compound: CC[C@H](C)[C@H](NC(=O)[C@H](CCCNC(=N)N)NC(=O)[C@H](CC(C)C)NC(=O)[C@H](CCCNC(=N)N)NC(=O)[C@@H](N)CCC(N)=O)C(=O)N[C@@H](CCCNC(=N)N)C(=O)N[C@H](C(=O)N[C@@H](C)C(=O)N[C@H](C(=O)N[C@H](C(=O)N[C@@H](CCCNC(=N)N)C(=O)N[C@@H](C)C(N)=O)[C@@H](C)CC)C(C)C)C(C)C [HH1, QRLRIRVAVIRA] (H-QRLRIRVAVIRA-NH2)
- MIC C. albicans [1]: 25 µg/mL (≈ 17.2 µM)
- MIC E. faecalis [2]: 50 µg/mL (≈ 34.5 µM)
- MIC S. epi. [3]: 12 µg/mL (≈ 8.28 µM)
- MIC E. coli (Escherichia coli UB1005; UB1005): 6 µg/mL (≈ 4.14 µM)
- MIC S. aureus [4]: 50 µg/mL (≈ 34.5 µM)
- MIC S. typhi [5]: 25 µg/mL (≈ 17.2 µM)
- MIC P. aerug [6]: 50 µg/mL (≈ 34.5 µM)
